TGI data for 13 molecules are collected here from PubChem BioAssay (NCI).

SMILES strings stand for the structures.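 Interpolation was linear, between the two tested concentrations surrounding the appropriate level; five concentrations were tested over 48 hours in 96-well plates. TGI marks complete inhibition of growth.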 Bounds are passed on as bounds.

Test systems include KM12 colon; NCI-H522 lung; A498 renal; ACHN renal; RPMI-8226 leukemia; RXF 393 renal; NCI-H460 lung; SK-MEL-5 melanoma; SF-295 CNS; HCT-116 colon; MALME-3M melanoma; IGROV1 ovarian; SNB-75 CNS; NCI-H226 lung; NCI/ADR-RES ovarian; DU-145 prostate; PC-3 prostate; BT-549 breast; MDA-MB-435.
Common to all, as to assay: NCI anticancer screen, dose series, 48 h

Consider `CC(=O)OC1CC2C(C)(C)C(=O)C=C[C@]2(C)C2CCC3(C)C(c4ccoc4)[C@@H](O)[C@H]4O[C@]43[C@]12C` (some centres not stated), for which the TGI in the experiment on KM12 colon came to 35.1 µM; in the experiment with NCI-H522 lung, 28 µM; with A498 renal, 49.7 µM; in the experiment on ACHN renal, 50 µM; in the experiment on RPMI-8226 leukemia, 67.1 µM; with RXF 393 renal it was 35.5 µM. Further, the TGI with NCI-H460 lung is 36.5 µM; in the experiment with SK-MEL-5 melanoma, 34.2 µM; with SF-295 CNS, 42.5 µM; with HCT-116 colon it was 51.9 µM; with MALME-3M melanoma, 51.7 µM; with IGROV1 ovarian, 46.2 µM. For the same molecule, the TGI was found to be 57.3 µM with SNB-75 CNS and 33.5 µM in the experiment on NCI-H226 lung.

Take `CN(C)C1(N(C)C)Oc2c(c(=O)n(C)c(=O)n2C)C(c2ccccc2Br)C1(F)F` (configuration not stated): the TGI in the experiment with KM12 colon, in the experiment with NCI/ADR-RES ovarian, in the experiment on A498 renal, in the experiment on ACHN renal, in the experiment with RPMI-8226 leukemia and with RXF 393 renal was over 100 µM throughout. Further, the TGI in the experiment on DU-145 prostate, in the experiment on NCI-H460 lung, in the experiment on SK-MEL-5 melanoma, in the experiment with SF-295 CNS, in the experiment with HCT-116 colon and in the experiment on PC-3 prostate was over 100 µM each time. Also, the TGI in the experiment with SNB-75 CNS, in the experiment on BT-549 breast, in the experiment on NCI-H226 lung and in the experiment on MDA-MB-435 was over 100 µM throughout.

In the case of `C=C(Br)C(C)(Br)CCC(Br)C(C)(C)Br` (configuration not stated), the TGI with KM12 colon was over 100 µM; in the experiment on NCI-H522 lung, 28.3 µM; in the experiment with ACHN renal, over 100 µM; in the experiment with RPMI-8226 leukemia it was 58.2 µM; with RXF 393 renal, over 100 µM; in the experiment with NCI-H460 lung it was over 100 µM. Moreover, the TGI is over 100 µM in the experiment on SK-MEL-5 melanoma; 62 µM in the experiment on SF-295 CNS; 47.7 µM in the experiment on HCT-116 colon; 81.8 µM with MALME-3M melanoma; 39 µM with IGROV1 ovarian; 89.2 µM in the experiment on SNB-75 CNS. The TGI with NCI-H226 lung was over 100 µM.

Regarding `CC1=CC(=O)c2c(C=O)c(O)c(O)c(C(C)C)c2C1=O`, the TGI was 32.4 µM in the experiment with NCI-H522 lung; 78 µM in the experiment on A498 renal; 32.6 µM with ACHN renal; over 62.8 µM with RPMI-8226 leukemia; 20.8 µM in the experiment on RXF 393 renal; over 74.1 µM in the experiment on NCI-H460 lung. Further, the TGI is 65 µM in the experiment with SK-MEL-5 melanoma; 38.5 µM in the experiment with HCT-116 colon; 68.2 µM in the experiment with MALME-3M melanoma; 63.9 µM with IGROV1 ovarian; over 100 µM in the experiment on SNB-75 CNS; 54.8 µM in the experiment on NCI-H226 lung.

Take `Cc1c(C(=O)/C=C/c2c(Cl)cccc2Cl)c(=O)n(-c2ccccc2)n1C`: the TGI was 44.8 µM in the experiment with KM12 colon; 48.5 µM with NCI-H522 lung; 98.4 µM in the experiment with A498 renal; over 100 µM in the experiment with ACHN renal; 20.4 µM in the experiment with RXF 393 renal; 82.7 µM in the experiment with NCI-H460 lung. For the same molecule, the TGI in the experiment on SF-295 CNS is 75.9 µM; in the experiment on HCT-116 colon, over 100 µM; in the experiment with MALME-3M melanoma it was over 100 µM; in the experiment with IGROV1 ovarian, over 100 µM; in the experiment with NCI-H226 lung, 39.1 µM.

Consider `CCOC1(OCC)N=C(N)C2(C#N)C3(C(=O)N(C(C)C)N=C3C)C12C#N` (configuration not stated), for which the TGI with KM12 colon, with NCI-H522 lung, with NCI/ADR-RES ovarian, with A498 renal, in the experiment with ACHN renal and with RPMI-8226 leukemia was over 100 µM throughout. Besides, the TGI with RXF 393 renal, in the experiment with DU-145 prostate, in the experiment with NCI-H460 lung, in the experiment on SF-295 CNS, in the experiment on HCT-116 colon and in the experiment on MALME-3M melanoma was over 100 µM each time. Moreover, the TGI with IGROV1 ovarian, with PC-3 prostate, in the experiment with SNB-75 CNS, in the experiment with BT-549 breast, in the experiment with NCI-H226 lung and with MDA-MB-435 was over 100 µM in each case.

`CCOC(=O)C(C(=O)OCC)=C1N[C@H](C(=O)OCC)CS1`: the TGI with KM12 colon, in the experiment with NCI-H522 lung, in the experiment with ACHN renal, with RPMI-8226 leukemia, in the experiment on RXF 393 renal and with NCI-H460 lung was over 100 µM throughout. Besides, the TGI with SK-MEL-5 melanoma, with SF-295 CNS, in the experiment on HCT-116 colon, in the experiment with MALME-3M melanoma, with IGROV1 ovarian and in the experiment with NCI-H226 lung was over 100 µM in each case.

On to `COc1ccc2c(c1)CCN1CCCc3ccc(OC)cc3C21` (configuration not stated), for which the TGI in the experiment with KM12 colon, with NCI-H522 lung, with NCI/ADR-RES ovarian, in the experiment on A498 renal, in the experiment with ACHN renal and in the experiment with RPMI-8226 leukemia was over 100 µM each time. Also, the TGI in the experiment on RXF 393 renal, in the experiment with DU-145 prostate, in the experiment on SK-MEL-5 melanoma, with SF-295 CNS, in the experiment with HCT-116 colon and in the experiment with IGROV1 ovarian was over 100 µM throughout. In addition, the TGI with PC-3 prostate is over 100 µM; in the experiment with SNB-75 CNS, 83.2 µM; in the experiment with BT-549 breast, 89.3 µM; with NCI-H226 lung, over 100 µM; with MDA-MB-435, over 100 µM.

`CC(=O)O[C@H]1CC[C@@]2(C)C(=C[C@H](c3ccc(O)cc3)[C@H]3[C@@H]4CC[C@H](OC(C)=O)[C@@]4(C)CC[C@@H]32)C1`: the TGI came to 31 µM in the experiment on KM12 colon; 31.9 µM in the experiment on NCI/ADR-RES ovarian; 57.8 µM in the experiment on A498 renal; 80.6 µM in the experiment on ACHN renal; 45.8 µM in the experiment on RPMI-8226 leukemia; 51.1 µM in the experiment on RXF 393 renal. The TGI was 48.8 µM in the experiment on DU-145 prostate; 40.6 µM in the experiment on NCI-H460 lung; 23.8 µM with SK-MEL-5 melanoma; 77.9 µM in the experiment on SF-295 CNS; 29.7 µM with HCT-116 colon; 34.2 µM in the experiment with MALME-3M melanoma. Further, the TGI is 46.2 µM in the experiment with PC-3 prostate; 51.7 µM with SNB-75 CNS; 29.4 µM in the experiment on BT-549 breast; 40.5 µM in the experiment on NCI-H226 lung; 62.6 µM in the experiment on MDA-MB-435.

With `CS/C(=N\S(=O)(=O)c1cc(C)c(Cl)cc1Cl)NNc1cnc2ccccc2n1`, the TGI in the experiment with KM12 colon, in the experiment on NCI-H522 lung, with NCI/ADR-RES ovarian, with A498 renal, with ACHN renal and in the experiment on RXF 393 renal was over 100 µM throughout. Further, the TGI in the experiment with DU-145 prostate, in the experiment on NCI-H460 lung, in the experiment on SK-MEL-5 melanoma, in the experiment on SF-295 CNS, with HCT-116 colon and in the experiment with MALME-3M melanoma was over 100 µM each time. Also, the TGI in the experiment with IGROV1 ovarian, in the experiment with PC-3 prostate, in the experiment on SNB-75 CNS, in the experiment on BT-549 breast, in the experiment on NCI-H226 lung and in the experiment on MDA-MB-435 was over 100 µM in each case.

`CCCCCNC(=O)c1c(O)[nH]c(=S)[nH]c1=O`: the TGI in the experiment on KM12 colon, in the experiment with NCI-H522 lung, with A498 renal, in the experiment with ACHN renal, in the experiment on RPMI-8226 leukemia and in the experiment with NCI-H460 lung was over 100 µM each time. Also, the TGI in the experiment on SK-MEL-5 melanoma, in the experiment with SF-295 CNS, in the experiment with HCT-116 colon, in the experiment with MALME-3M melanoma, in the experiment on IGROV1 ovarian and with SNB-75 CNS was over 100 µM in each case. Moreover, the TGI in the experiment with NCI-H226 lung was over 100 µM.

`CC(=O)NC1C(OC2C(CO)OC(OCC3OC(n4ccc(N)nc4=O)C(O)C3O)C(NC(C)=O)C2O)OC(CO)C(O)C1O` (configuration not stated): the TGI in the experiment with KM12 colon, with NCI-H522 lung, with NCI/ADR-RES ovarian, with A498 renal, in the experiment on ACHN renal and in the experiment with RPMI-8226 leukemia was over 100 µM each time. The TGI with RXF 393 renal, with DU-145 prostate, with NCI-H460 lung, in the experiment on SK-MEL-5 melanoma, in the experiment on SF-295 CNS and in the experiment with HCT-116 colon was over 100 µM each time. The TGI in the experiment with MALME-3M melanoma, with IGROV1 ovarian, in the experiment with PC-3 prostate, with SNB-75 CNS, in the experiment on BT-549 breast and in the experiment on NCI-H226 lung was over 100 µM in each case. The molecule also returned a TGI in the experiment with MDA-MB-435 of over 100 µM.

Regarding `CCOC(=O)c1c(-c2ccccc2)nc2c(OC)nccn12`, the TGI was over 100 µM with KM12 colon; over 100 µM in the experiment with NCI-H522 lung; over 100 µM in the experiment on NCI/ADR-RES ovarian; over 100 µM in the experiment on RPMI-8226 leukemia; 80.9 µM with RXF 393 renal; over 100 µM with DU-145 prostate. Besides, the TGI in the experiment with NCI-H460 lung, in the experiment with SK-MEL-5 melanoma, in the experiment on SF-295 CNS, in the experiment with HCT-116 colon, in the experiment on MALME-3M melanoma and in the experiment with IGROV1 ovarian was over 100 µM each time. Besides, the TGI in the experiment with PC-3 prostate, with SNB-75 CNS, in the experiment with BT-549 breast, in the experiment on NCI-H226 lung and with MDA-MB-435 was over 100 µM throughout.
